The target in assay [1] is Protein cereblon/Serine/threonine-protein kinase TBK1 (Homo sapiens) (UniProt Q9UHD2+Q96SW2). The experiment in a line: PROTAC activity at CRBN/TBK1 in human A549 cells assessed as induction of TBK1 degradation at 1 to 10 uM incubated for 16 hrs by Western blot analysis. The class given is cell-based. Particulars: dose 1-10 µM. A general note: Immunoblotting shows a protein as a band on a membrane.

Assay [2] has as its target T1, E3 ubiquitin-protein ligase RNF126/Serine/threonine-protein kinase TBK1 (Homo sapiens, UniProt Q9UHD2+Q9BV68). Put plainly: Molecular glue activity at RNF126/TBK1 in human A549 cells assessed as induction of TBK1 degradation at 1 uM incubated for 16 hrs by Western blot analysis. The class given is cell-based.
The target of assay [3] is T1, E3 ubiquitin-protein ligase RNF126/Serine/threonine-protein kinase TBK1. The experiment in a line: Molecular glue activity at RNF126/TBK1 in HEK293T cells assessed as induction of TBK1 degradation at 1 uM incubated for 16 hrs by Western blot analysis. The assay is classed as cell-based.
For assay [4], the target named is T2, Serine/threonine-protein kinase TBK1 (Homo sapiens, UniProt Q9UHD2).
T2 sequence (Q9UHD2 whole entry): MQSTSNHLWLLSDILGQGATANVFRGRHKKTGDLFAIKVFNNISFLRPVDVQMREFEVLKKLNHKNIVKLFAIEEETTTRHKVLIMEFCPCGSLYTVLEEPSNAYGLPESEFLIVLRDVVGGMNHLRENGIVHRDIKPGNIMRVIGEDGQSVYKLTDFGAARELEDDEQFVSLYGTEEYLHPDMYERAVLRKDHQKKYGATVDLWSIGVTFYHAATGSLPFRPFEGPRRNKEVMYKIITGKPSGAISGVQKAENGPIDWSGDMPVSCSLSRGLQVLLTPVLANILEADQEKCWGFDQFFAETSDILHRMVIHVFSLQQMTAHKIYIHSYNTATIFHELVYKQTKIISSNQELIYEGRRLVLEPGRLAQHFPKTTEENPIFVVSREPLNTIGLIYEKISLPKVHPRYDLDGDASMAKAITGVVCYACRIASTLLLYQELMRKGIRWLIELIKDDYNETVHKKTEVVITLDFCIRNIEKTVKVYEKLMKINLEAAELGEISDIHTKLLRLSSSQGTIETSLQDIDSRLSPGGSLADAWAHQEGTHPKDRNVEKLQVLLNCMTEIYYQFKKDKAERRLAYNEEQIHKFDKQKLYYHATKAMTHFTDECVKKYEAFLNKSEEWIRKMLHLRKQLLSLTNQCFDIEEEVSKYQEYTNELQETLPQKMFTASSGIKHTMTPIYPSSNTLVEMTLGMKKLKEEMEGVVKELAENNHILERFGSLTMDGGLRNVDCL
Put plainly: Inhibition of TBK1-dependent SEAP reporter gene expression in LPS-stimulated human THP1-Blue ISG cells incubated for 24 hrs by QUANTI-Blue reagent based analysis. The class given is cell-based. (In general: Reporter assays use an easily measured gene product as a stand-in for the process of interest.)

In assay [5] the test system is MDCK. The experiment in a line: Inhibition of cystogenesis in forskolin-stimulated MDCK cells assessed as reduction in cyst growth at 100 nM administrated for 8 days starting from day 4 to day 12 by imaging analysis. The assay is classed as functional, cell-based. The following applies: Canis lupus familiaris, time 8.0 day.

The source made the active and inactive calls. No cut-off for these calls is given here.

One may read the IC50 as the concentration that inhibits the measured activity by half. A lower IC50 goes with higher potency.

T1 sequence (Q9BV68 2-311 partner limits assumed, one chain of several): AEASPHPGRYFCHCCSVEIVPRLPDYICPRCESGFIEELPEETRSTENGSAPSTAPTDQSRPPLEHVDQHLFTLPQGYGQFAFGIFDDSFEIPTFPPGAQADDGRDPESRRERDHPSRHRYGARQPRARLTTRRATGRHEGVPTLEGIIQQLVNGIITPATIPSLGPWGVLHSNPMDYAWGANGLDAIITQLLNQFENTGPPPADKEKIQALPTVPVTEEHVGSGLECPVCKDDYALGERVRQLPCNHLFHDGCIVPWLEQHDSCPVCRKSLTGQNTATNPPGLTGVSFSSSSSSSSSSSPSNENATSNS
Chain of Protein cereblon/Serine/threonine-protein kinase TBK1 (Homo sapiens) (Q96SW2 whole entry, looked up, one chain of several): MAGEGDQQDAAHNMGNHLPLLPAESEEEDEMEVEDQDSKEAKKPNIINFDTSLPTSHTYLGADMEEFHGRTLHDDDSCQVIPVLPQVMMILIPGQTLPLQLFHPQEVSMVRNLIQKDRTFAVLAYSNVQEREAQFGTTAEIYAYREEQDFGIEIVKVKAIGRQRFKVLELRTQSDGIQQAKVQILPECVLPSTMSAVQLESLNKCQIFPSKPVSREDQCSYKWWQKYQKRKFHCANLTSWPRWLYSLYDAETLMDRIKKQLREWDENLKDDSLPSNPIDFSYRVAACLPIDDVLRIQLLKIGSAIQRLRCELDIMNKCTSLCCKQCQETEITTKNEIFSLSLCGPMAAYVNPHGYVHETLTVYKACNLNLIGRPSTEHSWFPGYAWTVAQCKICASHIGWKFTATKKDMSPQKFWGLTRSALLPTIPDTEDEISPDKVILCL

For `O=C1CCC(N2C(=O)c3cccc(NCCCCCC(=O)N4CCN(Cc5cccc(Nc6ncc7ccn(CCCNC(=O)C8CCC8)c7n6)c5)CC4)c3C2=O)C(=O)N1` (stereo unspecified), the result in assay [1] was inactive.
Same read-out and setting: then `Cc1ncsc1-c1ccc(CNC(=O)[C@H]2C[C@H](O)CN2C(=O)[C@@H](NC(=O)COCC(=O)N2CCN(Cc3cccc(Nc4ncc5ccn(CCCNC(=O)C6CCC6)c5n4)c3)CC2)C(C)(C)C)cc1`, with “inactive”.
On the same count and under the same terms, the same measure for `O=C1CCC(N2C(=O)c3ccc(OCCCCCC(=O)N4CCN(Cc5cccc(Nc6ncc7ccn(CCCNC(=O)C8CCC8)c7n6)c5)CC4)cc3C2=O)C(=O)N1` (stereo unspecified): “Active; Compound Exhibited Only Weak Degradation Compared To Control 3I”.
Regarding `Cc1ncsc1-c1ccc(CNC(=O)[C@@H]2C[C@@H](O)CN2C(=O)[C@H](NC(=O)CCC(=O)N2CCN(Cc3cccc(Nc4ncc5ccn(CCCNC(=O)C6CCC6)c5n4)c3)CC2)C(C)(C)C)cc1`, the Activity result in assay [1] is “Active; Compound Exhibited Only Weak Degradation Compared To Control 3I”.
On the same count and under the same terms, then `O=C1CCC(N2C(=O)c3cccc(NCCCCCCCCCC(=O)N4CCN(Cc5cccc(Nc6ncc7ccn(CCCNC(=O)C8CCC8)c7n6)c5)CC4)c3C2=O)C(=O)N1` (stereo unspecified), with “inactive”; and `Cc1ncsc1-c1ccc(CNC(=O)[C@@H]2C[C@@H](O)CN2C(=O)[C@H](NC(=O)CCCCCCCCC(=O)N2CCN(Cc3cccc(Nc4ncc5ccn(CCCNC(=O)C6CCC6)c5n4)c3)CC2)C(C)(C)C)cc1`, with “inactive”.
As to `O=C1CCC(N2C(=O)c3ccc(OCCCCCCCC(=O)N4CCN(Cc5cccc(Nc6ncc7ccn(CCCNC(=O)C8CCC8)c7n6)c5)CC4)cc3C2=O)C(=O)N1` (stereo unspecified), the result in assay [1] was inactive.
As to `COc1ccc(C(=O)/C=C/C(=O)N2CCN(C)CC2)cc1`, the result in assay [2] and in assay [3] was inactive.
Turning to `O=C1CCC(N2C(=O)c3ccc(OCCCCCCCCCCCC(=O)N4CCN(Cc5cccc(Nc6ncc7ccn(CCCNC(=O)C8CCC8)c7n6)c5)CC4)cc3C2=O)C(=O)N1` (stereo unspecified), the result in assay [1] was inactive.
On to `O=C1CCC(N2C(=O)c3cccc(NCCOCCOCCC(=O)N4CCN(Cc5cccc(Nc6ncc7ccn(CCCNC(=O)C8CCC8)c7n6)c5)CC4)c3C2=O)C(=O)N1` (stereo unspecified), for which, in assay [1], the result was inactive.
Consider `COc1ccc(C(=O)CCC(=O)N2CCN(CC3CCN(Cc4cccc(Nc5ncc6ccn(CCCNC(=O)C7CCC7)c6n5)c4)CC3)CC2)cc1`, for which the outcome in assay [2] and in assay [3] was inactive.
In the case of `O=C1CCC(N2C(=O)c3ccc(OCCCCCCCCCC(=O)N4CCN(Cc5cccc(Nc6ncc7ccn(CCCNC(=O)C8CCC8)c7n6)c5)CC4)cc3C2=O)C(=O)N1` (stereo unspecified), the result in assay [1] was inactive.
`CC(=O)N1CCN(Cc2cccc(Nc3ncc4ccn(CCCNC(=O)C5CCC5)c4n3)c2)CC1` registered an IC50 in assay [4] of 228 nM. Moreover, in assay [5], the inhibition entry is “inactive”.
On to `Cc1ncsc1-c1ccc(CNC(=O)[C@@H]2C[C@@H](O)CN2C(=O)[C@H](NC(=O)CCCCC(=O)N2CCN(Cc3cccc(Nc4ncc5ccn(CCCNC(=O)C6CCC6)c5n4)c3)CC2)C(C)(C)C)cc1`, for which the result in assay [1] was inactive.
Take `COc1ccc(C(=O)/C=C/C(=O)N2CCN(Cc3cccc(Nc4ncc5ccn(CCCNC(=O)C6CCC6)c5n4)c3)CC2)cc1`: the result in assay [2] and in assay [3] was Active.
Regarding `Cc1ncsc1-c1ccc(CNC(=O)[C@@H]2C[C@@H](O)CN2C(=O)[C@H](NC(=O)CCCCCCC(=O)N2CCN(Cc3cccc(Nc4ncc5ccn(CCCNC(=O)C6CCC6)c5n4)c3)CC2)C(C)(C)C)cc1`, the outcome in assay [1] was inactive.
Still for that read-out and setting: the same measure for `Cc1ncsc1-c1ccc(CNC(=O)[C@@H]2C[C@@H](O)CN2C(=O)[C@H](NC(=O)CCCCCCCCCCC(=O)N2CCN(Cc3cccc(Nc4ncc5ccn(CCCNC(=O)C6CCC6)c5n4)c3)CC2)C(C)(C)C)cc1`: “inactive”; for `Cc1ncsc1-c1ccc(CNC(=O)[C@H]2C[C@H](O)CN2C(=O)[C@@H](NC(=O)COCCOCCOCC(=O)N2CCN(Cc3cccc(Nc4ncc5ccn(CCCNC(=O)C6CCC6)c5n4)c3)CC2)C(C)(C)C)cc1`: “inactive”; for `O=C1CCC(N2C(=O)c3cccc(NCCCC(=O)N4CCN(Cc5cccc(Nc6ncc7ccn(CCCNC(=O)C8CCC8)c7n6)c5)CC4)c3C2=O)C(=O)N1` (stereo unspecified): “Active; Compound Exhibited Only Weak Degradation Compared To Control 3I”.
Consider `COc1ccc(C(=O)/C=C/C(=O)N2CCN(Cc3ccc(Nc4ncc5ccn(CCCNC(=O)C6CCC6)c5n4)cc3)CC2)cc1`, for which the outcome in assay [2] and in assay [3] was Active.
Regarding `COc1ccc(C(=O)/C=C(\C#N)C(=O)N2CCN(Cc3cccc(Nc4ncc5ccn(CCCNC(=O)C6CCC6)c5n4)c3)CC2)cc1`, the result in assay [2] and in assay [3] was inactive.
Take `O=C1CCC(N2C(=O)c3cccc(NCCCCCCCC(=O)N4CCN(Cc5cccc(Nc6ncc7ccn(CCCNC(=O)C8CCC8)c7n6)c5)CC4)c3C2=O)C(=O)N1` (stereo unspecified): in assay [1], the result was inactive.
As to `COc1ccc(C(=O)/C(C#N)=C/C(=O)N2CCN(Cc3cccc(Nc4ncc5ccn(CCCNC(=O)C6CCC6)c5n4)c3)CC2)cc1`, the result in assay [2] and in assay [3] was inactive.
Molecule `Cc1ncsc1-c1ccc(CNC(=O)[C@@H]2C[C@@H](O)CN2C(=O)[C@@H](NC(=O)COCCCOCCCCOCCCOc2ccc(Nc3ncc(Br)c(NCCCN(C)C(=O)C4CCC4)n3)cc2)C(C)(C)C)cc1` yielded an IC50 in assay [4] of 76.4 nM.

These data come from ChEMBL document CHEMBL6182930, “Discovery of TBK1Molecular Glue Degraders as a Potential Strategy for the Treatment of Autosomal Dominant Polycystic Kidney Disease (ADPKD)” (J Med Chem, 2025).
